Key:
[1] = target: T1, Aminopeptidase N (Sus scrofa, UniProt P15145); assay: Aminopeptidase N assay; assay type: biochemical; conditions: 10 μM; read-out: % inhibition of the catalytic activity of the enzyme
T1 construct: purchased Sigma Aldrich
T1 sequence (P15145 1-963): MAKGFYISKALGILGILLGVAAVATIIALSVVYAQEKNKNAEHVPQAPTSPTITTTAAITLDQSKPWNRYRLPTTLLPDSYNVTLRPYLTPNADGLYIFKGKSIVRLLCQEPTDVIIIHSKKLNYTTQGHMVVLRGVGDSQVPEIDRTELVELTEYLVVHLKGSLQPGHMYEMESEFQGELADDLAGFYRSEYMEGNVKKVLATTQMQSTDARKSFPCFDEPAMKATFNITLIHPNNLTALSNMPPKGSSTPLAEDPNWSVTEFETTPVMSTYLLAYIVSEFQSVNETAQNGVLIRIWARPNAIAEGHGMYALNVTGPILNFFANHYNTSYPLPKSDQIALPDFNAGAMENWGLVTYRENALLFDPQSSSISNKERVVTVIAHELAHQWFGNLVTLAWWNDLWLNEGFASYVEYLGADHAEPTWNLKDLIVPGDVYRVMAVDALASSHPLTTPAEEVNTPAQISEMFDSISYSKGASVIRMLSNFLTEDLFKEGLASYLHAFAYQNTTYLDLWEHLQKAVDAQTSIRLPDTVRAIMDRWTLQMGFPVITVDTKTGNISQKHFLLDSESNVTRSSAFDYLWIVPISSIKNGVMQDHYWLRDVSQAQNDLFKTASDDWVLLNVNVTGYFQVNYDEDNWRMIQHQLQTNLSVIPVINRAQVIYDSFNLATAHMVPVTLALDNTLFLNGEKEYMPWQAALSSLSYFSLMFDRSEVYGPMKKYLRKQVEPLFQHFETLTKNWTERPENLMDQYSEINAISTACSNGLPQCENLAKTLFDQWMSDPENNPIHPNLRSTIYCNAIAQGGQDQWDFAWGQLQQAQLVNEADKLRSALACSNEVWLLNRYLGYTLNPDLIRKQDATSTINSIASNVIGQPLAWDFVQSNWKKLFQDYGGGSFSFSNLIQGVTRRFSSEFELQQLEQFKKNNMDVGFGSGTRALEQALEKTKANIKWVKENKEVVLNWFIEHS
Experimental: Aminopeptidase N assay. 5 mU of aminopeptidase M (Sigma Aldrich) was incubated with 100 μM of substrate alanine-β-naphthylamide (Sigma Aldrich) in Tris buffered saline (50 mM Tris-HCl, 150 mM NaCl pH 7.5) at 25° C. IRAP inhibitors (1-10 μM) were added after 1 minute and fluorescence at 405 nm was followed.
(§1) Limited inhibition of control enzymes was observed.

[2] = target: Angiotensin converting enzyme 1 (Homo sapiens, UniProt P12821); assay: Angiotensin converting enzyme assay; assay type: biochemical; conditions: read-out: % inhibition of the catalytic activity of the enzyme
Sequence of Angiotensin converting enzyme 1 (P12821 30-1306): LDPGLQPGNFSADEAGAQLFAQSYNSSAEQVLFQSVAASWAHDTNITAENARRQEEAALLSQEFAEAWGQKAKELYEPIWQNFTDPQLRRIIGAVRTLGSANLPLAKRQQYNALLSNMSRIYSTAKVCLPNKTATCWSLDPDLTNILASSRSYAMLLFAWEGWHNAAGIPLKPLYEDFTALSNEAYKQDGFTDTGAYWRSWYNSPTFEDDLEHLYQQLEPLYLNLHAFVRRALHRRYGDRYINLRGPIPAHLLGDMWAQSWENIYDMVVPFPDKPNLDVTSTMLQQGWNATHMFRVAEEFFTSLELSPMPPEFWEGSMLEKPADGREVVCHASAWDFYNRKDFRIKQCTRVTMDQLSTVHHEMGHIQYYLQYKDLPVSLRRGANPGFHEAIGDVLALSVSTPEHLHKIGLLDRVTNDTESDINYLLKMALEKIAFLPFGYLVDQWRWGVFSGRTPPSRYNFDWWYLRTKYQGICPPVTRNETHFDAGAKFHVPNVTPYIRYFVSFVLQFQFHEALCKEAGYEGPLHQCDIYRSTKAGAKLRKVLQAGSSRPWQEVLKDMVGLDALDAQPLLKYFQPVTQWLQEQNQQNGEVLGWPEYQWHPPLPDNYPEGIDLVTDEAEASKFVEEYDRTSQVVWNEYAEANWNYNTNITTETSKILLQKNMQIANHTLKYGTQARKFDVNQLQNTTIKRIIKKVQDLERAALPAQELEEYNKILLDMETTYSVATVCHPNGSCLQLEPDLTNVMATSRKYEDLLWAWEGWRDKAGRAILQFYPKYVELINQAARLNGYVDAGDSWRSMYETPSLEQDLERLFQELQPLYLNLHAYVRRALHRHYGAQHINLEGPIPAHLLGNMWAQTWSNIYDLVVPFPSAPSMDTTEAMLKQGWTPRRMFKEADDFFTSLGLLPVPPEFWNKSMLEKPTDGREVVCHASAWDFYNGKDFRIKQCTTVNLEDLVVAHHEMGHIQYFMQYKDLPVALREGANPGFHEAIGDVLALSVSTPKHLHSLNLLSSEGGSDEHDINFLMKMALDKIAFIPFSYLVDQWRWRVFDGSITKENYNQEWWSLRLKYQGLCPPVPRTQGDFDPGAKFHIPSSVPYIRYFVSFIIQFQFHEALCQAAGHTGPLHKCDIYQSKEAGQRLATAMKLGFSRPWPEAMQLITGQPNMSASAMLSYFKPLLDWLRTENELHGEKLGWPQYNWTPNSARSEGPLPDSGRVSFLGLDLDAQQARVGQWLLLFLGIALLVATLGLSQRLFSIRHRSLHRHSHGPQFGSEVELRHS
Experimental: Angiotensin converting enzyme assay. The enzyme (final concentration 0.02 pmol/100 L) was incubated with 200 μL of assay solution that included 5 mmol/L HHL in 100 mmol/L potassium buffer (pH 8.3) that contained 300 mmol/L NaCl and 10^−4 mol/L ZnSO4 for 3 hours at 37° C. The enzymatic reaction was stopped by the addition of 1.5 mL of 0.28N NaOH, 100 μL of o-phthaldialdehyde (20 mg/mL) in methanol was added and the fluorescent reaction stopped by the addition of 200 μL of 3N HCl. The product, L-His-Leu, was measured fluorometrically (360 nm excitation and 500 nm emission).
as §1

[3] = test system: rats; assay: Locomotor cell activity; assay type: in vivo, rat; conditions: 30 mins; for Distance travelled (% control): rats, n=8 per group
Experimental: All experiments were performed according to the National Health and Medical Research Council of Australia “Code of practise for the care and use of animals for scientific purposes”. Male Spraque Dawley rats, (250-270 g) are housed individually and given water and standard rat chow ad libitum. On the day of surgery, the rats were anaesthetized with 5% isofluorane, placed in a stereotaxic frame and maintained on 2% isofluorane for the duration of the cannula implantation procedure. The rats were stereotaxically implanted with chronic indwelling cannula (Plastics One) into the cerebral lateral ventricles using the following flat skull coordinates 0.8 mm posterior to Bregma, 1.55 mm lateral to midline and 3.5 mm ventral to the dura. The cannula was then secured to the skull with stainless steel screws and dental cement. Seven days following surgery, proper cannula placement was verified by a bolus injection of angiotensin II (1 nmol/μl).
Locomotor activity of rats treated with 1 nmol Compound 2 intracerebrocentricularly was monitored in special cages measuring 40×40×40 cm (Coulbourn Instruments, Philadelphia, USA) equipped with harmless infrared photobeams. Activity was measured when pairs of photobeams spaced 2.54 cm apart providing a 1.27 cm spatial resolution were crossed. Data was collected and analysed using TruScan Photo Beam Activity system (Coulbourn Instruments, Philadelphia, USA). Each rat was placed in the arena for 30 min.

[4] = test system: hippocampal slices; assay: Hippocampal glucose uptake assay; assay type: cell-based; conditions: rat hippocampal slices
Experimental: Hippocampal glucose uptake assay. Eight week old male Spraque-Dawley rats were deeply anaesthetised with Isofluorothane and killed by decapitation. The brains were rapidly removed and placed into ice-cold, 95% O2, 5% CO2-bubbled artificial cerebrospinal fluid (aCSF: 124 mM NaCl, 2.5 mM KCl, 2 mM CaCl2, 2 mM MgSO4, 26 mM NaHCO3, 1.25 mM NaH2 PO4 pH 7.4) supplemented with 10 mM D-glucose (Sigma). Under aCSF, the hippocampal hemispheres were rapidly dissected out and 200 μm slices prepared on McIllwain tissue chopper with an ice-cold blade and stage. Slices from each hemisphere were kept together and transferred to freshly 95% O2, 5% CO2-bubbled aCSF supplemented with 10 mM D-glucose at 37° C. for 1 hour. All subsequent steps were carried out at 37° C. in a gently shaking chamber with continuous infusion of 95% O2, 5% CO2. Slices from one hemisphere were used as a basal control while slices from the other hemisphere were stimulated, providing an internal control for each animal. […] Tritium content was measured in a Liquid Scintillation Analyser 1900TR (Perkin Elmer, MA, USA).

[5] = test system: Glucose-6-phosphate dehydrogenase/glucose hexokinase; assay: Glucose-6-phosphate dehydrogenase and hexokinase activity, fluorimetric assay; conditions: 100 μM
Experimental: Glucose-6-phosphate dehydrogenase and hexokinase activity. Glucose-6-phosphate dehydrogenase and hexokinase activity in the absence and presence of the compounds was determined in a fluorimetric assay. Ten mM Tris MgCl2 buffer (total volume of 200 ml) containing glucose-6-phosphate dehydrogenase, 0.3M ATP, 30 mM NADP+ was added to 96 well microtitre plate together with 20 μl of compound, a reading at excitation 350 nm and emission 510 nm was taken followed by the addition of hexokinase and another reading.

CCOC(=O)C1=C(NC(C)=O)Oc2cc(O)ccc2C1c1cccnc1 (stereo not drawn) [Compound 2, Ethyl 2-(acetylamino)-7-hydroxy-4-pyridin-3-yl-4H-chromene-3-carboxylate]
inhibition at 10 µM [1]: 13% | inhibition at 10 µM ([2]; 10 μM): 9% | inhibition at 100 µM ([2]; 100 μM): 3% | Distance travelled (% control) ([3]; 0.1 nmol intracerebroventricularly): 85.12 ± 12.99 % control | Distance travelled (% control) ([3]; 1 nmol intracerebroventricularly): 90.16 ± 6.73 % control | locomotor activity compared to vehicle, by crossing of infrared beams and total distance travelled ([3]; 0.1 and 1 nmol intracerebroventricularly): did not exhibit increased or decreased locomotor activity | Fold change in 3H-2DOG uptake ([4]; dbcAMP & compound versus dbcAMP alone (=1), 100 nM): 1.7 | dibutyryl cAMP-evoked glucose uptake [4]: increase in dibutyryl cAMP-evoked glucose uptake | % inhibition of the catalytic activity of the enzyme [5]: 0%
